Experimental findings from ChEMBL document CHEMBL1201862, “PubChem BioAssay data set” (2004) are described below.

Series [1] has as its target Cytochrome P450 3A4 (Homo sapiens, UniProt P08684).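 Also: CYP3A4 tested as one member of a cytochrome P450 panel screen.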
The test system of series [2] is Vero. The series can be described thus: cells. The conditions noted are these: Chlorocebus sabaeus. In kind it is functional, cell-based.
Series [3] has as its system Escherichia coli. The series can be described thus: microbe, parasite or virus in culture.
Series [4] can be described thus: NIH-3T3 fibroblast cytotoxicity, dose response, cytotoxicity control, cell-based, fluorescence, Alamar Blue, secondary assay (AID 2327).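 Also: NIH-3T3 mouse fibroblasts cultured with fluconazole at 8 µg/mL.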 Format: functional. (Alamar Blue is a resazurin reagent that responds to reducing activity.)
In series [5] the target is T1, Serine/threonine-protein phosphatase (Candida dubliniensis (strain CD36 / CBS 7987 / NCPF 3949 / NRRLY-17841) (Yeast), UniProt B9W6M3).
T1 sequence (B9W6M3 whole entry): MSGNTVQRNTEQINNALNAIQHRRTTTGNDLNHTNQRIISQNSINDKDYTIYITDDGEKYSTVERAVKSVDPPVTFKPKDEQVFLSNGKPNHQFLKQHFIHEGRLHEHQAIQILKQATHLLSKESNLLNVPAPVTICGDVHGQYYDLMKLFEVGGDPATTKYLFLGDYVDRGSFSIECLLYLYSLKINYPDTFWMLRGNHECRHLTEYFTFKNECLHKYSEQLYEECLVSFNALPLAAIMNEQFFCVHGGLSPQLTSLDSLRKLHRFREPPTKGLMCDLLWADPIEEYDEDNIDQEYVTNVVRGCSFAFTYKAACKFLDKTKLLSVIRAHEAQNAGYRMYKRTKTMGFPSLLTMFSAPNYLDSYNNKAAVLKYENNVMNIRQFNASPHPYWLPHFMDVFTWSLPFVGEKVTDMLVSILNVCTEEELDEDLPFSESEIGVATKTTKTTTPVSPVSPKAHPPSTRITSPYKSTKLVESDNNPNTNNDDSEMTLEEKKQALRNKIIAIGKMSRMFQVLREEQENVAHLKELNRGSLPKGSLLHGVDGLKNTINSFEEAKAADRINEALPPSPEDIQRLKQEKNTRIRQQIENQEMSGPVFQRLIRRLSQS
The series can be described thus: calcineurin pathway inhibitors in yeast reporter, dose response, S. cerevisiae, CDRE-lacZ, luminescence, secondary (AID 2388).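 Also: yeast reporter cells carrying a calcineurin-responsive lacZ construct stimulated with calcium chloride; luminescent beta-galactosidase reporter signal in whole cells rather than isolated phosphatase activity; potency for inhibition where a drop in reporter signal means calcineurin blockade.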 Format: functional, cell-based.

Series [6] has as its target ATP-dependent molecular chaperone HSP82 (Candida albicans (strain WO-1) (Yeast), UniProt C4YTQ8). Kind of series: loss of DOC-induced GRE-beta-galactosidase reporter signal, dose response, Hsp90 inhibitor project, S. cerevisiae, luminescence (AID 2400).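 Also: beta-galactosidase luminescence from glucocorticoid response element reporter as proxy for Hsp90 function; inhibitor potency where signal loss means Hsp90 inhibition.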 In kind it is functional, cell-based.
A short description of series [7]: C. albicans growth with fluconazole, confirmation, fluorescence, retest (AID 2467). In kind it is functional, cell-based.
The test system of series [8] is Vero. The series can be described thus: cells. Format: functional. As to conditions: Chlorocebus sabaeus.
A short description of series [9]: inhibitors of intracellular T. cruzi replication, confirmation, NIH3T3 host cells, beta-gal luminescence (AID 2044).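 Also: intracellular parasites grown in NIH/3T3 mouse fibroblasts as host cells; luminescent beta-galactosidase reporter signal from transgenic T. cruzi replicating inside host cells; inhibitors lower the luminescence signal.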 In kind it is functional, cell-based.
The test system of series [10] is INS1. The series can be described thus: beta cell apoptosis inhibitors, cytokine rescue, dose response, luminescence, retest (AID 449756).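 Also: cell death triggered by IL-1 beta plus TNF-alpha plus IFN-gamma mixture; protective hits raise ATP signal compared with cytokine alone wells.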 In kind it is functional, cell-based. The conditions noted are these: Rattus norvegicus.
Series [11] can be described thus: cytotoxicity toward NIH3T3 fibroblasts, dose response, counter-screen, cell-based, ATP luminescence, mouse fibroblasts (AID 2010).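 Also: cells exposed to compound for about 90 hours before reading.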 In kind it is functional. (In general: Counterscreens check selectivity or assay interference.)
The target of series [12] is T2, Cytochrome P450 2C9 (Homo sapiens, UniProt P11712).
T2 sequence (P11712 whole entry): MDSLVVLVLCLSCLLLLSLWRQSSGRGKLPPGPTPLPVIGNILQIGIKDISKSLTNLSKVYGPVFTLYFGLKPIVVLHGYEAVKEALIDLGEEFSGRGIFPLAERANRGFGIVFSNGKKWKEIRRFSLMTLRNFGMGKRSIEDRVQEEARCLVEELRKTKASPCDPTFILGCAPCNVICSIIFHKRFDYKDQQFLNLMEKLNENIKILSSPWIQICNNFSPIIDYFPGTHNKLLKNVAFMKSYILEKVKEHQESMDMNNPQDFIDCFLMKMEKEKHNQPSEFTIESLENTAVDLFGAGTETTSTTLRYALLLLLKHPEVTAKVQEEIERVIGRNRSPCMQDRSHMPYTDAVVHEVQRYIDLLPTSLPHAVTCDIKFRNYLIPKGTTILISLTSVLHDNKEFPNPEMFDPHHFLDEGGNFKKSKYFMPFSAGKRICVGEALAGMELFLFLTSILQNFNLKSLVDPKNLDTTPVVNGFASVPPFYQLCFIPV
Series [13] deals with T3, Corticotropin-releasing factor receptor 2/Corticotropin-releasing factor-binding protein (Homo sapiens, UniProt P24387+Q13324).
T3 sequence (Q13324 whole entry): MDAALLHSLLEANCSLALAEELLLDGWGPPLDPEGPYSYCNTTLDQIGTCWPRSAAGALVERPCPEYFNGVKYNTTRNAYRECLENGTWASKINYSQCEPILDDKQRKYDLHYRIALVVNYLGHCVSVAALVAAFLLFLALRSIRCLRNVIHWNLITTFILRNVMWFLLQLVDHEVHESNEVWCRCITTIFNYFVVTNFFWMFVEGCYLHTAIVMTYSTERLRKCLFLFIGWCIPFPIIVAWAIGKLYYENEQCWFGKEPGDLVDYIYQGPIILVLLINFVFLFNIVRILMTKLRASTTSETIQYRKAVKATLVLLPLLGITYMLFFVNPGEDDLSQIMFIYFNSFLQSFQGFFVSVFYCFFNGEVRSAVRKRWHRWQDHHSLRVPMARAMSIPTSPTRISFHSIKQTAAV
T3 sequence (P24387 whole entry): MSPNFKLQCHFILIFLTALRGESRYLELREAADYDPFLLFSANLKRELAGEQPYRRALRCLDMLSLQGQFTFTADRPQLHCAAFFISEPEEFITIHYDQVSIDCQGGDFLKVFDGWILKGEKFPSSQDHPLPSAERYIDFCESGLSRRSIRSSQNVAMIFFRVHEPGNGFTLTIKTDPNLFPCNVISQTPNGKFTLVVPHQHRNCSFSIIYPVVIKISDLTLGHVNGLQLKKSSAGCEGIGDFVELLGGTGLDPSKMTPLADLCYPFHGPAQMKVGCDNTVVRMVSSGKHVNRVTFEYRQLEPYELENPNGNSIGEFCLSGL
The series can be described thus: activators of CRF receptor 2 with binding protein – uHTS hits, confirmation (AID 602473). The conditions noted are these: read-out: EC50_Mean. Format: functional.

In series [14] the target is T3, Corticotropin-releasing factor receptor 2/Corticotropin-releasing factor-binding protein. Kind of series: Dose Response confirmation of uHTS hits for small molecule antagonists of the CRF-binding protein and CRF-R2 receptor complex. In kind it is functional. As to conditions: read-out: IC50_Mean.
Series [15] concerns the target T4, Polyadenylate-binding protein 1 (Homo sapiens, UniProt P11940). The series can be described thus: PABP1 MLLE–PAM2 interaction inhibitors, dose response, miRNA deadenylation inhibitor project, biochemical, fluorescence polarization, Cy5-PAM2 peptide, secondary (AID 602260). In kind it is functional. As to conditions: read-out: IC50_Mean.
Series [16] deals with T4, Polyadenylate-binding protein 1. Kind of series: PABP1 MLLE–PAM2 binding inhibitor potency, dose response, biochemical, fluorescence polarization, FITC-PAM2 peptide (AID 602259). Format: functional. The conditions noted are these: read-out: IC50_Mean.
Series [17] addresses Cytochrome P450 2C19 (Homo sapiens, UniProt P33261). Kind of series: Cytochrome panel assay with activity outcomes. Panel member name: p450-cyp2c19 Compounds with AC50 equal or less than 10 uM are considered active. In kind it is functional. As to conditions: read-out: AC50.
In series [18] the target is T2, Cytochrome P450 2C9. This is another data set of the same source.
Series [19] is described as follows: THP-1 cell cytotoxicity, dose response, cytotoxicity control for non-replicating M. tuberculosis project (AID 489025). In kind it is functional.
Series [20] in a line: cells. Format: functional.
Series [21] can be described thus: HepG2 cell cytotoxicity, dose response, cytotoxicity control for non-replicating M. tuberculosis project (AID 489018). In kind it is functional. The conditions noted are these: Mycobacterium tuberculosis.
Series [22] in a line: microbe, parasite or virus in culture. In kind it is functional. As to conditions: Mycobacterium tuberculosis.
In series [23] the target is T5, Streptokinase A (Streptococcus pyogenes serotype M1, UniProt P10520).
T5 sequence (P10520 whole entry): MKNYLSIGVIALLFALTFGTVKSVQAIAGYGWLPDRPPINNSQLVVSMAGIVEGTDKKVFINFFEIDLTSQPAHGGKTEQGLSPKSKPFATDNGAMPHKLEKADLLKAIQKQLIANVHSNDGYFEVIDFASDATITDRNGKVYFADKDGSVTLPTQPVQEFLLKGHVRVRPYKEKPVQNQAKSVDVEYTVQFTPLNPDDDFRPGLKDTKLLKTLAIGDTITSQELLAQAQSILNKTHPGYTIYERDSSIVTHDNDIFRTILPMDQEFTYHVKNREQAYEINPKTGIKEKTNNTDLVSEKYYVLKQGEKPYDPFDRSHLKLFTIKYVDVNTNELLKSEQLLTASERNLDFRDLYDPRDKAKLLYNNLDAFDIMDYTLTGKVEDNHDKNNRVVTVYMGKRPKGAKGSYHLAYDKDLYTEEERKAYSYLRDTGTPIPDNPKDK
The series can be described thus: S. pyogenes streptokinase expression inhibitors, potency, dose response, plasminogen activation absorbance, OD405 (AID 1914).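 Also: secreted streptokinase activity via plasminogen activation per viability signal from cell pellet.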 In kind it is functional, Streptococcus pyogenes M1 GAS.

For series [24], the system named is Streptococcus. The series can be described thus: Group A Streptococcus viability loss, dose response, counter-screen for streptokinase expression inhibitor project, luminescence, BacTiterGlo (AID 1915).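 Also: potency for reduction of bacterial viability or growth.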 In kind it is functional, organism-based.
For series [25], the system named is Streptococcus sp. 'group A'. The series can be described thus: growth inhibition of control SK(-) GAS strain, dose response, counter-screen for streptokinase expression inhibitor project, luminescence, kanamycin, BacTiterGlo, confirmation (AID 1900). In kind it is functional, organism-based.

Calls of active or inactive are those of the source.

Sequence of Cytochrome P450 3A4 (P08684 whole entry): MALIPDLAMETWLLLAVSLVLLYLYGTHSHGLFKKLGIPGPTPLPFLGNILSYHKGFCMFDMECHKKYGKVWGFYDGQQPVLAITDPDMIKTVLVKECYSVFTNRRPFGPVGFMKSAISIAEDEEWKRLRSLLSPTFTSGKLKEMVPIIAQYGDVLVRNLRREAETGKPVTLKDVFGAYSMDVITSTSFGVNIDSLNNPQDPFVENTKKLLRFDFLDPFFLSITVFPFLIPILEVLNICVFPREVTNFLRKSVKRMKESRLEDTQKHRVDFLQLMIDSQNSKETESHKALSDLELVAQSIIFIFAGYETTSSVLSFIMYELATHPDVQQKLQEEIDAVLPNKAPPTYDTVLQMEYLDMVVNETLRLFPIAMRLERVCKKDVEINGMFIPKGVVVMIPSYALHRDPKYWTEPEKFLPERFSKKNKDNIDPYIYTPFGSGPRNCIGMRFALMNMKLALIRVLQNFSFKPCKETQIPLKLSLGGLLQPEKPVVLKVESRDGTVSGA
Sequence of ATP-dependent molecular chaperone HSP82 (C4YTQ8 whole entry): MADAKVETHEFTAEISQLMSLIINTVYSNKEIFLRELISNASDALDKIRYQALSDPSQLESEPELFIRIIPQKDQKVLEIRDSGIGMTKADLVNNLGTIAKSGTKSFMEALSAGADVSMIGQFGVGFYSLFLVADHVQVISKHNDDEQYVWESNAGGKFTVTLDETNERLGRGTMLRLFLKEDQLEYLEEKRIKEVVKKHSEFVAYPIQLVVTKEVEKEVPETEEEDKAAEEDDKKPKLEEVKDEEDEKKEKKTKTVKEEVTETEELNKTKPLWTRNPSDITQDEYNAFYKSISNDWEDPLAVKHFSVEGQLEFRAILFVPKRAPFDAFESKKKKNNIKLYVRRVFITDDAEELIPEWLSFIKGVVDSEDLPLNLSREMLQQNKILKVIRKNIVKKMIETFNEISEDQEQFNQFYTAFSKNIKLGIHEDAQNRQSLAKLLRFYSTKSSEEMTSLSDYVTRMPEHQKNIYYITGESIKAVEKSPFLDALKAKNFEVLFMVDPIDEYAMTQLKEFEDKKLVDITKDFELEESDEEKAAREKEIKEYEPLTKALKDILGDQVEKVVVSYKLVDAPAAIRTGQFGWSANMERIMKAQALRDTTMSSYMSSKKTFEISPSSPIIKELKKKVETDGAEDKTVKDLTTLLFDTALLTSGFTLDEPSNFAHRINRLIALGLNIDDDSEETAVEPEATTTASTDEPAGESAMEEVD
T4 sequence (P11940 whole entry): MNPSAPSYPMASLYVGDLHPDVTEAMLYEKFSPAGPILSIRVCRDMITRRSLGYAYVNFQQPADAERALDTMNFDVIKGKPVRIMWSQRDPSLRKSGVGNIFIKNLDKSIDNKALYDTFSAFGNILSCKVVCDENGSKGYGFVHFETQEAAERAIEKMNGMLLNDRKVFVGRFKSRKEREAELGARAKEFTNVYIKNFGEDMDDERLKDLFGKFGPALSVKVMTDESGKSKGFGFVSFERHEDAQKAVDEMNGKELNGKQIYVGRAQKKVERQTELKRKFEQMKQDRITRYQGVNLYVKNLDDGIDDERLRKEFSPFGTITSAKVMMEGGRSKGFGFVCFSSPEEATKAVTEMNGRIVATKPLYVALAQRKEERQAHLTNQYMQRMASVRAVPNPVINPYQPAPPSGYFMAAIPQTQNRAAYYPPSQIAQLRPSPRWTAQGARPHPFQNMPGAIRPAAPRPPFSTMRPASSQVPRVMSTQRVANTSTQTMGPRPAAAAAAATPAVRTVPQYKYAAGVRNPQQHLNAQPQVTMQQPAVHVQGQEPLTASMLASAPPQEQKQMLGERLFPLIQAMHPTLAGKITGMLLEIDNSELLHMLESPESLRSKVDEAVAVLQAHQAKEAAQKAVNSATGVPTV
Sequence of Cytochrome P450 2C19 (P33261 whole entry): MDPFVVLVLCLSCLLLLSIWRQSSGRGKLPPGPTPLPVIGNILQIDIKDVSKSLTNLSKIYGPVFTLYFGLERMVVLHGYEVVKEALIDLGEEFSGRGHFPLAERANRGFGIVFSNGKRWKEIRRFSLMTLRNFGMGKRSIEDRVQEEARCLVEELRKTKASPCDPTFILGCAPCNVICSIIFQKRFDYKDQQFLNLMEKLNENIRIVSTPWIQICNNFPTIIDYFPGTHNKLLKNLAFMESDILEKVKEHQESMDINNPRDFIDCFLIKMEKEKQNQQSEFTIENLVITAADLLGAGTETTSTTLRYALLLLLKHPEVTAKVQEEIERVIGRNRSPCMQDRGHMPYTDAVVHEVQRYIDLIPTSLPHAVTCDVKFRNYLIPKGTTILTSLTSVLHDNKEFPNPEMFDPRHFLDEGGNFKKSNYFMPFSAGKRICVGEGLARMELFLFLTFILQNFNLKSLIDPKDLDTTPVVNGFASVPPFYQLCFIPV

What is called AC50 is the midpoint of the concentration-response curve, whichever way the signal moves. Regarding `O=C(O)C1CCC(=O)N(C2CC2)C1c1ccccc1` (stereo not drawn), the AC50 result in [1] was “inconclusive”.

As to `COCCNCC(=O)NC12CC3CC(CC(C3)C1)C2`, the IC50 in series [2] was 16.2 µM (active).

Take `O=C1CN(S(=O)(=O)c2ccccc2C(F)(F)F)CCN1`: the concentration at half-maximal activity (AC50) in series [3] was 28.5 µM (active).

Consider `C=CCn1c(N)nc2ccccc21`, for which the EC50 in [4] was > 160 µM (inactive); in series [5], > 180 µM (inactive); in [6], > 160 µM (inactive); in series [7], 1.55 µM (active).

`O=C(c1ccc([N+](=O)[O-])o1)N1CCc2ccccc21`: in series [8], the CC50 was > 25 µM (active).

As for `CCCCc1ccc(NC(=N)Nc2nc(C)cc(C)n2)cc1`, the figures for the EC50 in series [9] and in [11] were 1.71 µM (active) and 9.01 µM (active), respectively. In addition, in series [10], the AC50 is 4.27 µM (active). Further, the CC50 in series [8] is 7.63 µM (active).

As for `CN(C)c1ncc2nc(-c3ccc(F)cc3)c(=O)n(Cc3ccc(F)cc3)c2n1`, the AC50 result in series [1] and in [12] was “inconclusive” throughout.

Take `O=C(CCCc1ccccc1)N1CCN(c2ccc([N+](=O)[O-])cc2)CC1`: the EC50 in series [13] was > 53 µM (inactive). The AC50 result in series [1] is given as “inconclusive”. The IC50 in series [14] was > 47.1 µM (inactive).

With `C=CC/N=c1/scc(-c2ccccc2)n1/N=C/c1ccccn1`, the IC50 in series [2] is 0.98 µM (active).

As for `CCOC(=O)c1c(NC(=O)c2c(-c3ccccc3)noc2C)sc(C)c1-c1ccccc1`, the figures for the EC50 in [9] and in [11] were 0.805 µM (active) and 12.5 µM (active), respectively. Further, the IC50 in series [2] was < 0.05 µM (active).

As to `CCCCc1c(O)n(-c2ccccc2OC)c(SCC(=O)Nc2cccc3ccccc23)nc1=O`, the EC50 in [4] is > 160 µM (inconclusive); in series [5], > 180 µM (inactive); in series [6], > 160 µM (inactive); in [7], 2.03 µM (active). Besides, the IC50 in [15] and in series [16] was > 66 µM (inactive) each time.

`COc1cccc(NC(=O)c2cccc(C(=O)Nc3cccc(OC)c3)n2)c1`: the AC50 in series [3] is 32.4 µM (active).

As for `CC(=O)NC1=NN(C(C)=O)C2(S1)C(=O)N(C(C)C)c1ccc(C)cc12` (stereo not drawn), the AC50 in series [3] is > 150 µM (inactive).

As for `O=S(=O)(c1ccc(Cl)cc1)N1CCN(C(=S)Nc2ccc(F)c(Cl)c2)CC1`, the IC50 in [2] was > 25 µM (active). The CC50 in [8] is > 25 µM (active).

Turning to `Cc1ccc(S(=O)(=O)Oc2ccc(/C=C(/NC(=O)c3ccccc3)C(=O)Nc3ccccc3)cc2)cc1`, the results for the AC50 in series [17], in series [1] and in series [18] were 316 nM (inconclusive), “inconclusive” and 316 nM (inconclusive), respectively.

Turning to `CC1=NN(C(=O)c2ccc(Br)cc2)C(O)(c2ccccc2)C1` (stereo not drawn), the CC50 in series [19] was 22.1 µM (active); in [21] it was > 20 µM (active); in [22], > 40 µM (active). In [20], the IC50 was 22.4 µM (active).

Consider `CC1C(=O)C(C)C(c2ccc(Br)cc2)NC1c1ccc(Br)cc1` (stereo not drawn), for which the EC50 was 1.11 µM (active) in [9] and > 60 µM (not active) in series [11]. Also, the CC50 in series [8] is > 25 µM (active).

Consider `CCOC(=O)C1C(=O)C=C(c2ccc(C)cc2)CC1c1ccco1` (stereo not drawn), for which the AC50 entry in [1] is “inconclusive”.

Regarding `O=S(=O)(c1ccccc1)N1CCC2(CCN(C(c3ccccc3)c3ccccc3)CC2)CC1`, the AC50 entry in series [1] is “inconclusive”.

On to `CCC(=O)NC(c1ccc(C)cc1)c1cc([N+](=O)[O-])c2cccnc2c1O` (stereo not drawn), for which the EC50 was 1.34 µM (active) in series [9]; 56.5 µM (active) in series [23]; 6.02 µM (active) in series [11]; 21.8 µM (active) in series [4]; > 180 µM (inactive) in series [5]; 12.7 µM (active) in series [24]. Also, the EC50 is > 150 µM (inactive) in [6], 0.212 µM (active) in series [7] and 1.17 µM (active) in series [25]. Besides, the AC50 in series [10] is 5.53 µM (active).
